Active and inactive are the calls of the source. How the calls were made is not given here. A value given as a limit tells only on which side of the number the result lay.

The IC50 is the concentration that inhibits the measured activity by half.

This assay has as its system Leishmania donovani growth inhibition. The experiment in a line: antileishmanial activity against L. donovani parasites (AID 1159560).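 Further: parasites exposed to compound for 72 h before the viability read.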
In the case of `O=C1CN(Cc2ccco2)C2CS(=O)(=O)CC2N1c1ccc(Cl)cc1` (stereo not drawn), the IC50 was > 50 µM (inactive). The figure for `O=C(CN(Cc1ccccn1)Cc1ccccn1)NCc1csc(-c2cccs2)n1` is 13 µM. The value for `Cn1nccc1-c1cc(OC(CN)c2ccccc2)cnc1-c1ccco1` (stereo not drawn) was > 50 µM (inactive); that for `O=C(Nc1cccc(S(=O)(=O)Nc2ccc(Br)cc2)c1)c1ccc([N+](=O)[O-])s1` was 0.79 µM; that for `COc1ccc(OC)c2c(=O)c(Cc3ccccc3)c(C)[nH]c12` was 0.4 µM. The value for `COc1ccc2ncc(=O)n(CCN3CCC(NCc4ccc(-c5cccs5)cc4)CC3)c2n1` was 1.6 µM; that for `C[C@@H](Oc1cc(-n2cnc3ccc(C(O)CO)cc32)sc1C(N)=O)c1ccccc1C(F)(F)F` (stereo partly drawn) was 16 µM; that for `O=C(COc1ncnc2cc([N+](=O)[O-])ccc12)NC(=O)NC1CCCCC1` was > 50 µM (inactive). Take `CCN(CC)c1nc(Nc2ccncc2)nc2ccccc12`: the half-inhibitory concentration (IC50) is 0.79 µM. The value for `c1ccc(CNc2cccc3ccncc23)cc1` was 10 µM. The figure for `CCN(CC)c1ccc(S(=O)(=O)N(CC)CC)c2nonc12` is 6.3 µM; for `Cc1ccnc(NS(=O)(=O)c2ccc(NC(=O)c3ccc([N+](=O)[O-])s3)cc2)n1` it is 4 µM.

In the case of `Cc1ccc(S(=O)(=O)Nc2ccc(CN3CCN(C(=O)c4cccc(C#N)c4)CC3)cc2)cc1`, the IC50 is 10 µM. The figure for `Cc1cc(C#N)c([N+](=O)[O-])cc1Br` is 25 µM; for `N#Cc1ccc(Br)cc1[N+](=O)[O-]` it is 7.9 µM.

Consider `COc1ccc(Oc2ccc(C(C)N(C)c3ncc4c(N)nc(N)nc4n3)cc2)cc1` (stereo not drawn), for which the 50% inhibitory concentration (IC50) is 0.04 µM. The figure for `N#Cc1cccc(CN2CCC(N(Cc3cccnc3)C(=O)c3cc(F)c(F)cc3F)CC2)c1` is > 50 µM (inactive). Consider `CCc1cccc(CC)c1-n1c(SCC(=O)N2CC(=O)Nc3ccccc32)nnc1-c1cccnc1`, for which the concentration for half-maximal inhibition (IC50) is 40 µM. On to `O=c1[nH]cnc2c([C@@H]3O[C@H](CO)[C@@H](O)[C@H]3O)[nH]nc12`, for which the IC50 was 0.4 µM. The value for `COc1ccc(S(=O)(=O)Nc2ccc(C(=O)Nc3nc(-c4ccccn4)cs3)cc2)cc1` was 1 µM; that for `Cc1cc(NC(=O)c2ccc([N+](=O)[O-])s2)ccc1Br` was 3.2 µM; that for `Cn1c(CC(=O)NNC(=O)c2ccc3ccccc3n2)nc2ccccc21` was 6.3 µM. The figure for `COc1cc(OC)cc(C(NS(=O)(=O)c2ccc(Cl)c(C(F)(F)F)c2)c2nccn2C)c1` (stereo not drawn) is 10 µM. The figure for `CC(CCc1ccccc1)NC(=O)CN(Cc1ccccn1)Cc1ccccn1` (stereo not drawn) is 7.9 µM.

For the compound `COc1ccc(-c2cc(C)no2)cc1S(=O)(=O)Nc1ccc(F)c(Cl)c1`, the IC50 is 25 µM. The value for `COc1ccc(C2C3CCCCC3(O)CCN2CC(=O)Nc2ccc(Cl)cc2Cl)cc1` (stereo not drawn) was 1.6 µM. The figure for `N#Cc1cccc(CNc2ccc(-c3cnn(CC4CC4)c(=O)c3C#N)cc2)c1` is 25 µM; for `Cc1cc2nc(N3CC[C@H]3C(N)=O)nc(Nc3cc(C4CC4)[nH]n3)c2s1` it is 0.79 µM. For the compound `Cc1ccc2c(c1)-c1onc(C(=O)N3CCCCC3c3cccnc3)c1CO2` (stereo not drawn), the IC50 was 32 µM.

In the case of `Cc1cc2cc(CNc3ccc4c(c3)OCO4)c(=O)n(CCO)c2cc1C`, the half-maximal inhibitory concentration (IC50) is 6.3 µM. The value for `O=C(c1ccccc1)N1CCC(C(=O)N2CCC(Oc3ccccc3Cl)CC2)CC1` was > 50 µM (inactive); that for `Cc1ccccc1NS(=O)(=O)c1ccc2[nH]cc(C(=O)NC3CCCC(C)C3C)c(=O)c2c1` (stereo not drawn) was 25 µM; that for `Clc1ccc(Sc2cnccc2N2CCOCC2)cc1` was 7.9 µM. The value for `CCN(Cc1nc2ccc(C(=O)N3CCN(c4ncccn4)CC3)cc2[nH]1)C1CCCc2cccnc21` (stereo not drawn) was 5 µM.

As to `N#Cc1cccc(CN2CCC(c3nc(-c4ccc(C(F)(F)F)nc4)no3)CC2)c1`, the half-inhibitory concentration (IC50) is 13 µM. For `Cc1ccc(Nc2nc(-c3ccccn3)cc(N3CCCC(O)C3)n2)cc1` (stereo not drawn), the concentration for half-maximal inhibition (IC50) was 2 µM. The value for `CC(C)(C)CC(=O)NCc1noc(COc2ccccc2)n1` was > 50 µM (inactive). For `O=C(c1cnn(-c2ccccc2)n1)N1CCCC(n2ccnc2)C1` (stereo not drawn), the half-maximal inhibitory concentration (IC50) is 7.9 µM.

Regarding `N#Cc1c(Oc2cccc(Cl)c2)cccc1[N+](=O)[O-]`, the IC50 is 7.9 µM.

On to `Fc1ccc(Nc2nc(-c3ccccn3)cs2)cc1`, for which the IC50 was 20 µM. With `O=C(COc1nn(-c2ccccc2)c2ncccc12)NCc1ccccc1`, the IC50 is 0.4 µM. Consider `CNc1nc(C)nc(N2CCc3cc(C(=O)NCc4ccc(-c5nccn5C)cc4Cl)ccc32)n1`, for which the half-maximal inhibitory concentration (IC50) is 5 µM. The value for `COc1ccc(NS(=O)(=O)c2cc(NC(=O)Cc3ccc(C)cc3)ccc2N2CCOCC2)cc1` was 40 µM; that for `CC(C)(C)CC(=O)NCCc1csc(-c2ccc(F)cc2)n1` was > 50 µM (inactive).

With `NCC(Cc1ccccc1)NC(=O)c1cnc(-c2c[nH]c3ncccc23)s1` (stereo not drawn), the IC50 was > 50 µM (inactive). The value for `O=C1NCCn2ccc(Nc3nc(NC4CCC(O)CC4)ncc3Cl)c21` (stereo not drawn) was 2.5 µM; that for `Cc1c([N+](=O)[O-])c(C(=O)Nc2sc3c(c2C#N)CCC(C)C3)nn1C` (stereo not drawn) was 25 µM; that for `O=S(=O)(NCC(c1cccnc1)N1CCN(c2ccccc2F)CC1)c1ccc(F)cc1` (stereo not drawn) was 4 µM. As for `CN(C)CCN(C)Cc1ccc(Cl)cc1NS(=O)(=O)c1ccc(Cl)c(Cl)c1`, the IC50 was 5 µM. The value for `CCc1nn(-c2ncc(F)c(NC(C)C)n2)c(N)c1C1CCCCC1` was 3.2 µM. The value for `Cc1ccc(NC(=O)c2ccnc(N3CCCC3)c2)cc1-c1ccsc1C(N)=O` was > 50 µM (inactive); that for `COc1ccc(Cl)cc1CC(=O)Nc1n[nH]c(-c2ccccn2)n1` was 4 µM. As for `O=C(CN(Cc1ccccn1)Cc1ccccn1)NCc1ccc(-c2csnn2)cc1`, the concentration for half-maximal inhibition (IC50) was 7.9 µM. Regarding `COc1cccc(Nc2cc(C)nc(-c3ccccn3)n2)c1`, the half-maximal inhibitory concentration (IC50) is 4 µM. The value for `Oc1cccnc1-c1n[nH]c(Cc2ccccc2)n1` was 2 µM; that for `Cc1cc(NC(=O)C2CCCCC2)n(-c2nc3c(c(=O)[nH]2)CCC3)n1` was 0.04 µM. For the compound `Nc1ncnc2c1ncn2[C@@H]1O[C@H](CO)C[C@H]1O`, the IC50 was > 50 µM (inactive). For the compound `O=C(Nc1ccc(C(=O)N2CCCC2c2ccc3c(c2)OCCCO3)cc1)c1ccco1` (stereo not drawn), the half-inhibitory concentration (IC50) was 0.79 µM.

Consider `O=C(NCc1nnc2n1CCCCC2)c1ccc(-c2ccc(F)cc2)o1`, for which the IC50 is > 50 µM (inactive).

`Cc1ccc(S(=O)(=O)Nc2ccc(CN3CCN(C(=O)c4cccc(C)c4)CC3)cc2)cc1`: the IC50 was 25 µM. As for `COc1ccc([N+](=O)[O-])cc1NC(=O)c1cc(Cl)ccc1O`, the IC50 was 7.9 µM. The value for `O=C(NCCc1cccnc1)c1csc(-c2ccccc2)n1` was > 50 µM (inactive); that for `Cn1ccnc1CN1CCc2[nH]cnc2C1c1ccccc1OCc1ccccc1` (stereo not drawn) was > 50 µM (inactive).

`O=C(NC(c1ccc(Cl)cc1)c1cnccn1)C1CCN(C(=O)Nc2cccc(C(F)(F)F)c2)CC1` (stereo not drawn): the IC50 is 20 µM. The value for `COc1ccc(S(=O)(=O)Nc2ccc(CN3CCN(C(=O)c4cccc(C#N)c4)CC3)cc2)cc1` was 32 µM; that for `CCOc1ccc(CC(=O)N2c3ccccc3CC2C(=O)NC)cc1` (stereo not drawn) was > 50 µM (inactive).

On to `CC(C(=O)Nc1ccccc1F)N(C)CC(=O)Nc1cccc2ccccc12` (stereo not drawn), for which the concentration for half-maximal inhibition (IC50) is 50 µM. In the case of `O=c1oc2ccccc2n1C1CCN(Cc2ccccc2-c2cccnc2)CC1`, the IC50 was > 50 µM (inactive). As for `COc1cccc(-c2cc(C(F)(F)F)nc(-n3ccc([N+](=O)[O-])n3)n2)c1`, the IC50 is > 50 µM (inactive). The value for `Cc1c(C#N)c([N+](=O)[O-])nn1Cc1cccc(Cl)c1Cl` was > 50 µM (inactive); that for `CNC(=O)C1Cc2ccccc2N1C(=O)COc1cccc(OC)c1` (stereo not drawn) was > 50 µM (inactive). As to `Cn1nc([N+](=O)[O-])nc1N1CCCCC1`, the IC50 is > 50 µM (inactive). The figure for `CC(=O)Nc1ccc(-c2cnc(N)c(-c3nc4ccc(F)cc4[nH]3)c2)cc1` is 6.3 µM; for `O=[N+]([O-])c1ccc(-c2nnn(-c3ccc(Cl)cc3)n2)o1` it is 6.3 µM. The value for `O=C(NCCc1cccnc1)c1ccc(-c2ccccc2F)o1` was 20 µM. The value for `CNC(=O)Oc1ccc(C(=O)NCc2ccccc2)cc1OC(=O)NC` was > 50 µM (inactive). Turning to `Cc1ccccc1OCC(=O)N1CCCN(c2cccnn2)CC1`, the half-maximal inhibitory concentration (IC50) was 13 µM. The figure for `COc1ccc2nccc([C@H](O)CN3CC[C@H](NC(=O)c4ccc(Br)cc4)[C@@H](O)C3)c2n1` is 3.2 µM; for `COCCn1cnc2cc(NC(=O)C3CCCCC3)cc(C(=O)N3CCc4sccc4C3)c21` it is > 50 µM (inactive).

Turning to `N#Cc1ccccc1S(=O)(=O)N1CCN(C(=O)CNC(=O)c2ccc3c(c2)OCO3)CC1`, the IC50 is 0.63 µM. The figure for `CCCn1c(NC(=O)CCn2cc(Br)cn2)nc2ccccc21` is 10 µM. The value for `CN(C)CCOc1ccc(N2CCN(S(=O)(=O)c3ccc(Cl)cc3)CC2)cc1` was 40 µM; that for `CS(=O)(=O)N1CCC(Nc2ncc(Br)c(Nc3cccc(F)c3C(N)=O)n2)CC1` was 0.1 µM. The value for `CN(Cc1nc2ccc(C(=O)NCC3CCCCC3)cc2[nH]1)C1CCCc2cccnc21` (stereo not drawn) was 3.2 µM; that for `CC(C)Nc1nc(Cl)nc2ccccc12` was 20 µM; that for `Cc1nc2c(-c3nc(-c4ccc(N)cc4)n[nH]3)cccn2c1C` was 3.2 µM.

Consider `Cc1cc(Nc2cc(C3CC3)[nH]n2)nc(N2CCC[C@H]2C(N)=O)n1`, for which the IC50 was 0.63 µM. The figure for `Cc1[nH]n2c(=O)c3c(nc2c1-c1ccc(F)cc1)CCCC3` is 1.3 µM; for `NC(=O)c1ncccc1Nc1nc(NC2CCC(O)CC2)ncc1Br` (stereo not drawn) it is 1.3 µM; for `CCc1cccc(CC)c1-n1c(SCC(=O)NC(=O)NCc2ccco2)nnc1-c1cccnc1` it is > 50 µM (inactive).

As for `O=C(CSc1nnc(-c2ccc3c(c2)OCO3)o1)N(Cc1ccco1)CC(F)(F)F`, the IC50 is 16 µM. The value for `Cc1cc(Br)cc(C(=O)c2c(C(C)C)c(=O)[nH]c(=O)n2Cc2ccnc(N)c2)c1` was > 50 µM (inactive). The value for `CCN(CC)S(=O)(=O)c1ccc(Cn2nc(C(=O)Nc3ccncn3)c3ccccc32)cc1` was > 50 µM (inactive).

The record behind these values is PubChem BioAssay AID1159560 (GlaxoSmithKline (GSK), 2015).
